Test results reported in ChEMBL document CHEMBL3137667, “[Drug-induced liver injury; fourteenth updated edition of the bibliographic database of liver injuries and related drugs]” (Gastroenterol Clin Biol, 2004).

Key:
[1] = Highest frequency of moderate liver toxicity observed during clinical trials, expressed as a percentage. [column '% BIOL' in source]; conditions: human
[2] = Highest frequency of acute liver toxicity observed during clinical trials, expressed as a percentage. [column '% AIGUE' in source]; conditions: human
[3] = Comments (NB not yet translated). [column 'COMMENTAIRES' in source]; conditions: human
[4] = Times to onset, minimal and maximal, observed in the indexed observations. [column 'DELAI' in source]; conditions: human
[5] = Proposed mechanism(s) of liver damage. [column 'MEC' in source]; conditions: human
[6] = human, serum
[7] = human, serum; remark: listed apart in the source
[8] = human
[9] = human; remark: listed apart in the source
[10] = human; remark: listed apart in the source
[11] = human, serum, 4383 h
[12] = human; remark: listed apart in the source
[13] = human; remark: listed apart in the source
[14] = human; remark: listed apart in the source
[15] = human; remark: listed apart in the source
[16] = human; remark: listed apart in the source
[17] = human; remark: listed apart in the source
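Throughout, for Hepatotoxicity (association with vascular disease): count of indexed literature references reporting vascular liver injury in humans, e.g. peliosis hepatitis, hepatic veno-occlusive disease or Budd-Chiari syndrome.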
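Throughout, for Hepatotoxicity (benign tumour): value is a count of indexed literature references citing a benign tumour confirmed by histopathology.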
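Throughout, for Hepatotoxicity (choleostasis): human cholestatic liver injury, shown by histopathology or by peak ALT or AST elevation over alkaline phosphatase ratio below 2, value counts indexed literature reports.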
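Throughout, for Hepatotoxicity (chronic liver disease): chronic liver injury confirmed by histopathology or persistently raised serum aminotransferase activity beyond 6 months, value given as the count of indexed literature references.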
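Throughout, for Hepatotoxicity (cirrhosis): value is a count of indexed literature references reporting cirrhosis confirmed by histopathology.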
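Throughout, for Hepatotoxicity (cytolytic): human cytolytic liver injury, shown by histopathology or by a ratio above 5 of peak ALT or AST elevation to alkaline phosphatase elevation, value counts indexed references.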
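Throughout, for Hepatotoxicity (granulomatous hepatitis): value is a count of indexed literature references reporting granulomatous liver disease confirmed by histopathology.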
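Throughout, for Hepatotoxicity (malignant tumour): malignant tumour confirmed by histopathology, value gives the count of indexed literature references reporting it.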
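Throughout, for Hepatotoxicity (severe hepatitis): human clinical data: severe hepatitis, meaning potentially life-threatening liver failure or clinically observed cases, the value counts how many indexed literature references report it.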
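Throughout, for Hepatotoxicity (steatosis): steatosis confirmed by histopathology, value is the count of indexed references.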

CCOC(=O)C1=C(COCCN)NC(C)=C(C(=O)OC)C1c1ccccc1Cl (stereo not drawn) [AMLODIPINE]
Hepatotoxicity (moderate) ([1]; Liver): 12.8%
Hepatotoxicity (acute) ([2]; Liver): 0%
Hepatotoxicity (comment) [3]: CHOLANGIOLITE AC_ANTI-M/-N RC/DILTIAZEM
Hepatotoxicity (time to onset) [4]: 1 month - 10 months
Hepatotoxicity (mechanism) [5]: Allergic
Hepatotoxicity (moderate) [6]: 2
Hepatotoxicity (acute) [7]: 4
Hepatotoxicity (cytolytic) [8]: 3
Hepatotoxicity (choleostasis) [9]: 2
Hepatotoxicity (severe hepatitis) ([10]; Liver): 0
Hepatotoxicity (chronic liver disease) [11]: 0
Hepatotoxicity (cirrhosis) [12]: 0
Hepatotoxicity (granulomatous hepatitis) [13]: 0
Hepatotoxicity (association with vascular disease) [14]: 0
Hepatotoxicity (steatosis) [15]: 0
Hepatotoxicity (malignant tumour) [16]: 0
Hepatotoxicity (benign tumour) [17]: 0

Cc1c(C)c2c(c(C)c1O)CCC(C)(COc1ccc(CC3SC(=O)NC3=O)cc1)O2 (stereo not drawn) [TROGLITAZONE]
Hepatotoxicity (moderate) [1]: 5.8%
Hepatotoxicity (acute) [2]: 5%
Hepatotoxicity (comment) [3]: CHOLESTASE_PROLONGEE
Hepatotoxicity (time to onset) [4]: 3 days - 2.3 years
Hepatotoxicity (mechanism) [5]: Mitochondrial toxicity
Hepatotoxicity (moderate) [6]: 18
Hepatotoxicity (acute) [7]: 36
Hepatotoxicity (cytolytic) [8]: 27
Hepatotoxicity (choleostasis) [9]: 4
Hepatotoxicity (severe hepatitis) [10]: 21
Hepatotoxicity (chronic liver disease) [11]: 1
Hepatotoxicity (cirrhosis) [12]: 0
Hepatotoxicity (granulomatous hepatitis) [13]: 1
Hepatotoxicity (association with vascular disease) [14]: 0
Hepatotoxicity (steatosis) [15]: 2
Hepatotoxicity (malignant tumour) [16]: 0
Hepatotoxicity (benign tumour) [17]: 0

COc1ccc2cc([C@H](C)C(=O)O)ccc2c1 [NAPROXEN]
Hepatotoxicity (moderate) ([1]; Liver): 9.5%
Hepatotoxicity (acute) ([2]; Liver): 1.1%
Hepatotoxicity (comment) [3]: RC/FENOPROFENE
Hepatotoxicity (time to onset) [4]: 2 days - 2 months
Hepatotoxicity (mechanism) ([5]; Liver): Allergic
Hepatotoxicity (moderate) [6]: 13
Hepatotoxicity (acute) [7]: 19
Hepatotoxicity (cytolytic) ([8]; Liver): 8
Hepatotoxicity (choleostasis) ([9]; Liver): 8
Hepatotoxicity (severe hepatitis) ([10]; Liver): 4
Hepatotoxicity (chronic liver disease) [11]: 0
Hepatotoxicity (cirrhosis) [12]: 0
Hepatotoxicity (granulomatous hepatitis) ([13]; Liver): 1
Hepatotoxicity (association with vascular disease) [14]: 0
Hepatotoxicity (steatosis) [15]: 1
Hepatotoxicity (malignant tumour) [16]: 0
Hepatotoxicity (benign tumour) [17]: 0

Nc1nnc(-c2cccc(Cl)c2Cl)c(N)n1 [LAMOTRIGINE]
Hepatotoxicity (moderate) [1]: 7.7%
Hepatotoxicity (acute) [2]: 0%
Hepatotoxicity (comment) [3]: DUCTOPENIE CHOLESTASE_PROLONGEE
Hepatotoxicity (time to onset) [4]: 5 days - 3 months
Hepatotoxicity (mechanism) [5]: Allergic
Hepatotoxicity (moderate) [6]: 7
Hepatotoxicity (acute) [7]: 17
Hepatotoxicity (cytolytic) [8]: 12
Hepatotoxicity (choleostasis) [9]: 1
Hepatotoxicity (severe hepatitis) [10]: 9
Hepatotoxicity (chronic liver disease) [11]: 0
Hepatotoxicity (cirrhosis) [12]: 0
Hepatotoxicity (granulomatous hepatitis) [13]: 0
Hepatotoxicity (association with vascular disease) [14]: 0
Hepatotoxicity (steatosis) [15]: 0
Hepatotoxicity (malignant tumour) [16]: 0
Hepatotoxicity (benign tumour) [17]: 0

Cc1cnc(C(=O)NCCc2ccc(S(=O)(=O)NC(=O)NC3CCCCC3)cc2)cn1 [GLIPIZIDE]
Hepatotoxicity (moderate) ([1]; Liver): 0%
Hepatotoxicity (comment) [3]: AC_ANTI-ML
Hepatotoxicity (time to onset) [4]: 2 days - 5 months
Hepatotoxicity (mechanism) [5]: Allergic
Hepatotoxicity (moderate) [6]: 1
Hepatotoxicity (cytolytic) [8]: 3
Hepatotoxicity (choleostasis) [9]: 0
Hepatotoxicity (severe hepatitis) ([10]; Liver): 2
Hepatotoxicity (chronic liver disease) [11]: 0
Hepatotoxicity (cirrhosis) [12]: 0
Hepatotoxicity (granulomatous hepatitis) [13]: 0
Hepatotoxicity (association with vascular disease) [14]: 0
Hepatotoxicity (steatosis) [15]: 0
Hepatotoxicity (malignant tumour) [16]: 0
Hepatotoxicity (benign tumour) [17]: 0

O=C(Nc1ccc(Cl)cc1)NS(=O)(=O)c1ccc2c(c1)CCC2 [SULOFENUR]
Hepatotoxicity (moderate) [1]: 80%
Hepatotoxicity (acute) [2]: 18.8%
Hepatotoxicity (comment) [3]: CHOLANGITE
Hepatotoxicity (mechanism) [5]: Dose-dependant
Hepatotoxicity (moderate) [6]: 9
Hepatotoxicity (acute) [7]: 6
Hepatotoxicity (cytolytic) [8]: 4
Hepatotoxicity (choleostasis) [9]: 3
Hepatotoxicity (severe hepatitis) [10]: 0
Hepatotoxicity (chronic liver disease) [11]: 0
Hepatotoxicity (cirrhosis) [12]: 0
Hepatotoxicity (granulomatous hepatitis) [13]: 0
Hepatotoxicity (association with vascular disease) [14]: 0
Hepatotoxicity (steatosis) [15]: 0
Hepatotoxicity (malignant tumour) [16]: 0
Hepatotoxicity (benign tumour) [17]: 0

Cc1nc2n(c(=O)c1CCN1CCC(c3noc4cc(F)ccc34)CC1)CCCC2 [RISPERIDONE]
Hepatotoxicity (moderate) [1]: 6%
Hepatotoxicity (acute) [2]: 4%
Hepatotoxicity (comment) [3]: PERICHOLANGITE HYPERBILIRUBINEMIE
Hepatotoxicity (time to onset) [4]: 2 days - 1 year
Hepatotoxicity (moderate) [6]: 4
Hepatotoxicity (acute) [7]: 6
Hepatotoxicity (cytolytic) [8]: 5
Hepatotoxicity (choleostasis) [9]: 2
Hepatotoxicity (severe hepatitis) [10]: 0
Hepatotoxicity (chronic liver disease) [11]: 0
Hepatotoxicity (cirrhosis) [12]: 0
Hepatotoxicity (granulomatous hepatitis) [13]: 0
Hepatotoxicity (association with vascular disease) [14]: 0
Hepatotoxicity (steatosis) [15]: 4
Hepatotoxicity (malignant tumour) [16]: 0
Hepatotoxicity (benign tumour) [17]: 0

Nc1c(CC(=O)O)cccc1C(=O)c1ccc(Br)cc1 [BROMFENAC]
Hepatotoxicity (moderate) [1]: 0%
Hepatotoxicity (acute) [2]: 0%
Hepatotoxicity (comment) [3]: AC_ANTI-N
Hepatotoxicity (time to onset) [4]: 2 weeks - 8 months
Hepatotoxicity (moderate) [6]: 0
Hepatotoxicity (acute) [7]: 7
Hepatotoxicity (cytolytic) [8]: 7
Hepatotoxicity (choleostasis) [9]: 0
Hepatotoxicity (severe hepatitis) [10]: 7
Hepatotoxicity (chronic liver disease) [11]: 0
Hepatotoxicity (cirrhosis) [12]: 0
Hepatotoxicity (granulomatous hepatitis) [13]: 0
Hepatotoxicity (association with vascular disease) [14]: 0
Hepatotoxicity (steatosis) [15]: 0
Hepatotoxicity (malignant tumour) [16]: 0
Hepatotoxicity (benign tumour) [17]: 0

CC(=O)OCC(CCn1cnc2cnc(N)nc21)COC(C)=O [FAMCICLOVIR]
Hepatotoxicity (moderate) [1]: 0%
Hepatotoxicity (acute) [2]: 0%
Hepatotoxicity (comment) [3]: REACTIVATION_HVB
Hepatotoxicity (time to onset) [4]: 12 weeks
Hepatotoxicity (moderate) [6]: 0
Hepatotoxicity (acute) [7]: 1
Hepatotoxicity (cytolytic) [8]: 0
Hepatotoxicity (choleostasis) [9]: 0
Hepatotoxicity (severe hepatitis) [10]: 1
Hepatotoxicity (chronic liver disease) [11]: 0
Hepatotoxicity (cirrhosis) [12]: 0
Hepatotoxicity (granulomatous hepatitis) [13]: 0
Hepatotoxicity (association with vascular disease) [14]: 0
Hepatotoxicity (steatosis) [15]: 0
Hepatotoxicity (malignant tumour) [16]: 0
Hepatotoxicity (benign tumour) [17]: 0

CCC(=O)O[C@@H](O[P@](=O)(CCCCc1ccccc1)CC(=O)N1C[C@H](C2CCCCC2)C[C@H]1C(=O)O)C(C)C [FOSINOPRIL]
Hepatotoxicity (moderate) [1]: 1.2%
Hepatotoxicity (acute) [2]: 0%
Hepatotoxicity (comment) [3]: PERICHOLANGITE CHOLESTASE_PROLONGEE
Hepatotoxicity (time to onset) [4]: 3 weeks - 3 months
Hepatotoxicity (moderate) [6]: 3
Hepatotoxicity (acute) [7]: 2
Hepatotoxicity (cytolytic) [8]: 0
Hepatotoxicity (choleostasis) [9]: 2
Hepatotoxicity (severe hepatitis) [10]: 0
Hepatotoxicity (chronic liver disease) [11]: 0
Hepatotoxicity (cirrhosis) [12]: 0
Hepatotoxicity (granulomatous hepatitis) [13]: 0
Hepatotoxicity (association with vascular disease) [14]: 0
Hepatotoxicity (steatosis) [15]: 0
Hepatotoxicity (malignant tumour) [16]: 0
Hepatotoxicity (benign tumour) [17]: 0
